Experimental data: patent US20250059184A1 (priority 2021, published 2025)
pEC50, pIC50: −log10 of the molar value.

What was measured:
[1] = molecular target: T1, 5-HT2A (Homo sapiens, UniProt P28223); experiment: Serotonin 5-HT2A in vitro cellular IPOne agonism assay (HTRF); format: cell-based; set-up: host or cells: CHO-K1; details: CHO-K1 cells, agonist mode
Procedure: (§1) Serotonin 5-HT2A In Vitro Cellular IPOne Agonism Assay. The 5-HT2A IPOne HTRF assay was performed at Epics Therapeutics S.A. (Belgium, FAST-0505I) using conventional methods. Briefly, CHO-K1 cells expressing human recombinant 5-HT2A receptor grown to mid-log phase in culture media without antibiotics were detached with PBS-EDTA, centrifuged, and resuspended in medium without antibiotics buffer. 20,000 cells were distributed in a 96 well plate and incubated overnight at 37° C. with 5% Co2.
For agonist testing, the medium was removed and 20 μl of assay buffer plus 20 μl of test compound or reference agonist were added in each well. The plate was incubated for 60 min. at 37° C. with 5% CO2.
(§2) After addition of the lysis buffer containing IP1-d2 and anti-IP1 cryptate detection reagents, plates were incubated 1-hour at room temperature, and fluorescence ratios were measured according to the manufacturer specification, with the HTRF kit.

[2] = molecular target: T1, 5-HT2A; experiment: Serotonin 5-HT2A in vitro radioligand binding competition assay ([3H]-DOI); set-up: purchased Epics Therapeutics S.A. (Belgium) FAST-0505B; details: [3H]-DOI radiotracer, membrane extracts
Procedure: Serotonin 5-HT2A In Vitro Radioligand Binding Competition Assay. The 5-HT2A radioligand binding competition assay was performed at Epics Therapeutics S.A. (Belgium, FAST-0505B) using conventional methods. Briefly, competition binding was performed in duplicate in the wells of a 96 well plate (Master Block, Greiner, 786201) containing binding buffer (optimized for each receptor), membrane extracts (amount of protein/well optimized for each receptor), radiotracer [^3H]-DOI (final concentration optimized for each receptor) and test compound. Nonspecific binding was determined by co-incubation with 200-fold excess of cold competitor. The samples were incubated in a final volume of 0.1 ml at a temperature and for a duration optimized for each receptor and then filtered over filter plates. Filters were washed six times with 0.5 ml of ice-cold washing buffer (optimized for each receptor) and 50 μl of Microscint 20 (Packard) were added in each well. The plates were incubated 15 min on an orbital shaker and then counted with a TopCount™ for 1 min/well.

[3] = molecular target: T1, 5-HT2A; experiment: Serotonin 5-HT2A in vitro cellular IPOne antagonism assay (HTRF); format: cell-based; set-up: host or cells: CHO-K1; details: CHO-K1 cells, reference agonist α-Me-5HT; read-out: 5-HT2A IPOne Antagonist Activity
Procedure: as §1, with “Antagonism” for “Agonism”, “FAST-O0505) in antagonism mode” for “FAST-0505I)”
For antagonist testing, a reference agonist α-Me-5HT was added and fluorescence signal monitored for several minutes, followed by addition of 20 μl of assay buffer plus 20 μl of test compound or reference antagonist ketanserin, in each well. The plate was incubated for 60 min. at 37° C. with 5% CO2.
as §2

T1 sequence (P28223 whole entry): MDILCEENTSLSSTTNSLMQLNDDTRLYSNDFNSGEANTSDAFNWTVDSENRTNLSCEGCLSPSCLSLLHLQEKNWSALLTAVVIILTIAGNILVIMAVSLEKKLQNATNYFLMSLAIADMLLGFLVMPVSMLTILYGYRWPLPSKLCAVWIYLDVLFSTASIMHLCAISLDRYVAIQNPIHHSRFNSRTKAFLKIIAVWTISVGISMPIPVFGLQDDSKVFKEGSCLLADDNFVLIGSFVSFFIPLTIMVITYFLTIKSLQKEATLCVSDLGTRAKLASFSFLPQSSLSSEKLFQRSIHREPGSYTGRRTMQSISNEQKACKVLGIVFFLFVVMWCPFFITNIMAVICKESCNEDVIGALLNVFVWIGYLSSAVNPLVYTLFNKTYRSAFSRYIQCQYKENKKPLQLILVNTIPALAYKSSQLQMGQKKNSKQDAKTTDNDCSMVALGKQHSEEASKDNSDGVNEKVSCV

SMILES: NCCc1ncc2ccccn12 [Compound 1, 2-(imidazo[1,5-a]pyridin-3-yl)ethan-1-amine]
- pEC50 [1]: < 5.00
- pIC50 [2]: 5.00 to 6.00

SMILES: CC(N)Cc1ncc2ccccn12 (stereo not drawn) [Compound 2, 1-(imidazo [1,5-a]pyridin-3-yl)propan-2-amine]
- pEC50 [1]: 6.00 to 7.00
- pIC50 [2]: 5.00 to 6.00

SMILES: COc1ccn2c(CC(C)N)ncc2c1 (stereo not drawn) [Compound 3, 1-(7-methoxyimidazo[1,5-a]pyridin-3-yl)propan-2-amine]
- pEC50 [1]: < 5.00
- pIC50 [2]: 5.00 to 6.00

SMILES: CC(N)Cc1ncc2cc(F)ccn12 (stereo not drawn) [Compound 4, 1-(7-fluoroimidazo[1,5-a]pyridin-3-yl)propan-2-amine]
- pEC50 [1]: < 5.00
- pIC50 [2]: 6.00 to 7.00
- pIC50 [3]: 5.00 to 6.00

SMILES: Cc1nc(CC(C)N)n2ccc(F)cc12 (stereo not drawn) [Compound 5, 1-(7-fluoro-1-methylimidazo [1,5-a]pyridin-3-yl)propan-2-amine]
- pEC50 [1]: 5.00 to 6.00
- pIC50 [2]: 5.00 to 6.00

SMILES: CC(C)(N)Cc1ncc2ccccn12 [Compound 6, 1-(imidazo [1,5-a]pyridin-3-yl)-2-methylpropan-2-amine]
- pEC50 [1]: < 5.00
- pIC50 [2]: 5.00 to 6.00
- pIC50 [3]: 6.00 to 7.00

SMILES: Cc1cccc2cnc(CC(C)N)n12 (stereo not drawn) [Compound 7, 1-(5-methylimidazo[1,5-a]pyridin-3-yl)propan-2-amine]
- pEC50 [1]: 5.00 to 6.00
- pIC50 [2]: 5.00 to 6.00

SMILES: Cc1cccn2c(CC(C)N)ncc12 (stereo not drawn) [Compound 8, 1-(8-methylimidazo[1,5-a]pyridin-3-yl)propan-2-amine]
- pEC50 [1]: 5.00 to 6.00
- pIC50 [2]: 5.00 to 6.00
- pIC50 [3]: < 5.00

SMILES: Cc1ccn2c(CC(C)N)ncc2c1 (stereo not drawn) [Compound 9, 1-(7-methylimidazo[1,5-a]pyridin-3-yl)propan-2-amine]
- pEC50 [1]: 5.00 to 6.00
- pIC50 [2]: 5.00 to 6.00
- pIC50 [3]: < 5.00

SMILES: Cc1ccc2cnc(CC(C)N)n2c1 (stereo not drawn) [Compound 10, 1-(6-methylimidazo[1,5-a]pyridin-3-yl)propan-2-amine]
- pEC50 [1]: 5.00 to 6.00
- pIC50 [2]: 5.00 to 6.00

SMILES: Cc1nc(CC(C)N)n2ccccc12 (stereo not drawn) [Compound 11, 1-(1-methylimidazo[1,5-a]pyridin-3-yl)propan-2-amine]
- pEC50 [1]: 5.00 to 6.00
- pIC50 [2]: 5.00 to 6.00

SMILES: c1ccn2c(C3CCNC3)ncc2c1 (stereo not drawn) [Compound 12, 3-(Pyrrolidin-3-yl)imidazo[1,5-a]pyridine]
- pEC50 [1]: < 5.00
- pIC50 [2]: 5.00 to 6.00
- pIC50 [3]: 5.00 to 6.00

SMILES: COc1ccn2c(CC(C)N(C)C)ncc2c1 (stereo not drawn) [Compound 16, 1-(7-methoxyimidazo[1,5-a]pyridin-3-yl)-N,N-dimethylpropan-2-amine]
- pEC50 [1]: < 5.00
- pIC50 [2]: < 5.00

SMILES: Cc1nc(CC(C)N(C)C)n2ccc(F)cc12 (stereo not drawn) [Compound 18, 1-(7-fluoro-1-methylimidazo [1,5-a]pyridin-3-yl)-N,N-dimethylpropan-2-amine]
- pEC50 [1]: < 5.00
- pIC50 [2]: 5.00 to 6.00

SMILES: Cc1cccc2cnc(CC(C)N(C)C)n12 (stereo not drawn) [Compound 20, N,N-dimethyl-1-(5-methylimidazo [1,5-a]pyridin-3-yl)propan-2-amine]
- pEC50 [1]: < 5.00
- pIC50 [2]: < 5.00

SMILES: Cc1cccn2c(CC(C)N(C)C)ncc12 (stereo not drawn) [Compound 21, N,N-dimethyl-1-(8-methylimidazo [1,5-a]pyridin-3-yl)propan-2-amine]
- pEC50 [1]: < 5.00
- pIC50 [2]: 5.00 to 6.00

SMILES: Cc1ccn2c(CC(C)N(C)C)ncc2c1 (stereo not drawn) [Compound 22, N,N-dimethyl-1-(7-methylimidazo [1,5-a]pyridin-3-yl)propan-2-amine]
- pEC50 [1]: < 5.00
- pIC50 [2]: < 5.00

SMILES: Cc1ccc2cnc(CC(C)N(C)C)n2c1 (stereo not drawn) [Compound 23, N,N-dimethyl-1-(6-methylimidazo [1,5-a]pyridin-3-yl)propan-2-amine]
- pEC50 [1]: < 5.00
- pIC50 [2]: < 5.00

SMILES: Cc1nc(CC(C)N(C)C)n2ccccc12 (stereo not drawn) [Compound 24, N,N-dimethyl-1-(1-methylimidazo [1,5-a]pyridin-3-yl)propan-2-amine]
- pEC50 [1]: < 5.00
- pIC50 [2]: < 5.00

SMILES: CCN(CC)C(C)Cc1ncc2ccccn12 (stereo not drawn) [Compound 25, N,N-diethyl-1-(imidazo[1,5-a]pyridin-3-yl)propan-2-amine]
- pEC50 [1]: < 5.00
- pIC50 [2]: 5.00 to 6.00

SMILES: CC(Cc1ncc2ccccn12)N1CCOCC1 (stereo not drawn) [Compound 28, 4-(1-(Imidazo[1,5-a]pyridin-3-yl)propan-2-yl)morpholine]
- pEC50 [1]: < 5.00
- pIC50 [2]: 5.00 to 6.00

SMILES: C[C@@H](Cc1ncc2ccccn12)N(C)C [Compound 29, (S)-1-(imidazo[1,5-a]pyridin-3-yl)-N,N-dimethylpropan-2-amine]
- pEC50 [1]: < 5.00
- pIC50 [2]: 5.00 to 6.00

SMILES: CC(N)Cc1cnc2ccccn12 (stereo not drawn) [Compound 33, 1-(imidazo[1,2-a]pyridin-3-yl)propan-2-amine]
- pEC50 [1]: < 5.00
- pIC50 [2]: < 5.00

SMILES: COc1ccn2c(CC(C)N)cnc2c1 (stereo not drawn) [Compound 34, 1-(7-methoxyimidazo[1,2-a]pyridin-3-yl)propan-2-amine]
- pEC50 [1]: < 5.00
- pIC50 [2]: < 5.00

SMILES: CC(N)Cc1cnc2cc(F)ccn12 (stereo not drawn) [Compound 35, 1-(7-Fluoroimidazo[1,2-a]pyridin-3-yl)propan-2-amine]
- pEC50 [1]: < 5.00
- pIC50 [2]: < 5.00

SMILES: CC(Cc1cnc2ccccn12)N(C)C (stereo not drawn) [Compound 36, 1-(imidazo[1,2-a]pyridin-3-yl)-N,N-dimethylpropan-2-amine]
- pEC50 [1]: < 5.00
- pIC50 [2]: < 5.00

SMILES: COc1ccn2c(CC(C)N(C)C)cnc2c1 (stereo not drawn) [Compound 37, 1-(7-Methoxyimidazo[1,2-a]pyridin-3-yl)-N,N-dimethylpropan-2-amine]
- pEC50 [1]: < 5.00
- pIC50 [2]: < 5.00

SMILES: CC(Cc1cnc2cc(F)ccn12)N(C)C (stereo not drawn) [Compound 38, 1-(7-Fluoroimidazo[1,2-a]pyridin-3-yl)-N,N-dimethylpropan-2-amine]
- pEC50 [1]: < 5.00
- pIC50 [2]: < 5.00

SMILES: NCCc1ncn2ccccc12 [Compound 39, 2-(Imidazo[1,5-a]pyridin-1-yl)ethan-1-amine]
- pEC50 [1]: 5.00 to 6.00
- pIC50 [2]: 5.00 to 6.00

SMILES: CC(N)Cc1ncn2ccccc12 (stereo not drawn) [Compound 40, 1-(imidazo[1,5-a]pyridin-1-yl)propan-2-amine]
- pEC50 [1]: < 5.00
- pIC50 [2]: 5.00 to 6.00

SMILES: Cc1nc(CCN)c2ccccn12 [Compound 41, 2-(3-methylimidazo[1,5-a]pyridin-1-yl)ethan-1-amine]
- pEC50 [1]: < 5.00
- pIC50 [2]: < 5.00

SMILES: Cc1nc(CC(C)N)c2ccc(F)cn12 (stereo not drawn) [Compound 42, 1-(6-fluoro-3-methylimidazo[1,5-a]pyridin-1-yl)propan-2-amine]
- pEC50 [1]: 5.00 to 6.00
- pIC50 [2]: 5.00 to 6.00

SMILES: Cc1nc(CCN(C)C)c2ccccn12 [Compound 45, N,N-dimethyl-2-(3-methylimidazo [1,5-a]pyridin-1-yl)ethan-1-amine]
- pEC50 [1]: < 5.00
- pIC50 [2]: < 5.00

SMILES: Cc1nc(CC(C)N(C)C)c2ccc(F)cn12 (stereo not drawn) [Compound 46, 1-(6-fluoro-3-methylimidazo [1,5-a]pyridin-1-yl)-N,N-dimethylpropan-2-amine]
- pEC50 [1]: < 5.00
- pIC50 [2]: 5.00 to 6.00

SMILES: NCCc1cnn2ccccc12 [Compound 47, 2-(Pyrazolo[1,5-a]pyridin-3-yl)ethan-1-amine]
- pEC50 [1]: < 5.00
- pIC50 [2]: < 5.00

SMILES: CC(N)Cc1cnn2ccccc12 (stereo not drawn) [Compound 48, 1-(pyrazolo[1,5-a]pyridin-3-yl)propan-2-amine]
- pEC50 [1]: 5.00 to 6.00
- pIC50 [2]: < 5.00

SMILES: CN(C)CCc1cnn2ccccc12 [Compound 49, N,N-dimethyl-2-(pyrazolo[1,5-a]pyridin-3-yl)ethan-1-amine]
- pEC50 [1]: < 5.00
- pIC50 [2]: < 5.00

SMILES: CC(Cc1cnn2ccccc12)N(C)C (stereo not drawn) [Compound 50, N,N-dimethyl-1-(pyrazolo[1,5-a]pyridin-3-yl)propan-2-amine]
- pEC50 [1]: < 5.00
- pIC50 [2]: < 5.00
